Results published in patent US20230212172A1, “ARYLACETAMIDE ANALOGS OF PIPERAZINE-[1,2,4]TRIAZOLO[4,3-B]PYRIDAZINES” (University of Vermont and State Agricultural College, priority 2020, published 2023).
Read-outs that look alike come from different tables or passages of the source.

Tested on: C. parvum
Assay: In vitro inhibition of C. parvum development in HCT-8 cells
Format: cell-based
Settings: Cryptosporidium parvum
[1] = HCT-8 cells, Table 4, read-out: EC50 for inhibition of C. parvum development in HCT-8 cells
[2] = average EC50, C. parvum in HCT-8 cells, read-out: Cp HTC-8 Avg EC50

| SMILES | EC50 [1] | EC50 [2] |
| --- | --- | --- |
| O=C(Cc1cc(F)cc(F)c1)N1CCN(c2ccc3nncn3n2)CC1 [Example 10485, 2-(3,5-difluorophenyl)-1-(4-{[1,2,4]triazolo[4,3-b]pyridazin-6-yl}piperazin-1-yl)ethan-1-one] | 5660 nM | – |
| O=C(Cc1ccc(Br)cc1)N1CCN(c2ccc3nncn3n2)CC1 [Example 2767, 2-(4-bromophenyl)-1-(4-{[1,2,4]triazolo[4,3-b]pyridazin-6-yl}piperazin-1-yl)ethan-1-one] | 1120 nM | – |
| O=C(Cc1ccc(C(F)(F)F)c(F)c1)N1CCN(c2ccc3nncn3n2)CC1 [Example 10480, 2-[3-fluoro-4-(trifluoromethyl)phenyl] -1-(4-{[1,2,4]triazolo[4,3-b]pyridazin-6-yl}piperazin-1-yl)ethan-1-one] | 2000 nM | – |
| N#Cc1ccc(CC(=O)N2CCN(c3ccc4nncn4n3)CC2)cc1 [Example 2797, 4-[2-oxo-2-(4-{[1,2,4]triazolo[4,3-b]pyridazin-6-yl}piperazin-1-yl)ethyl]benzonitrile] | 11000 nM | – |
| O=C(Cc1ccc(F)cc1)N1CCN(c2ccc3nncn3n2)CC1 [Example 2632, 2-(4-fluorophenyl)-1-(4-{[1,2,4]triazolo[4,3-b]pyridazin-6-yl}piperazin-1-yl)ethan-1-one] | 1180 nM | – |
| O=C(Cc1cc(C(F)(F)F)cc(C(F)(F)F)c1)N1CCN(c2ccc3nncn3n2)CC1 [SLU-0010495, 2-[3,5-bis(trifluoromethyl)phenyl]-1-(4-{[1,2,4]triazolo[4,3-b]pyridazin-6-yl}piperazin-1-yl)ethan-1-one] | – | 319 nM |
| Cc1nnc2ccc(N3CCN(C(=O)Cc4ccc(Cl)c(Cl)c4)CC3)nn12 [Example 2808, 2-(3,4-dichlorophenyl)-1-(4-{3-methyl-[1,2,4]triazolo[4,3-b]pyridazin-6-yl}piperazin-1-yl)ethan-1-one] | 30000 nM | – |
| CC1CN(c2ccc3nncn3n2)CCN1C(=O)Cc1ccc(Cl)c(Cl)c1 (stereo not drawn) [Example 2752, 2-(3,4-dichlorophenyl)-1-(2-methyl-4-{[1,2,4]triazolo[4,3-b]pyridazin-6-yl}piperazin-1-yl)ethan-1-one] | 7440 nM | – |
| O=C(N1CCN(c2ccc3nncn3n2)CC1)C1(c2ccc(Cl)c(Cl)c2)CC1 [Example 2766, 1-[1-(3,4-dichlorophenyl)cyclopropanecarbonyl]-4-{[1,2,4]triazolo[4,3-b]pyridazin-6-yl}piperazine] | 8330 nM | – |
| O=C(Cc1ccc(C(F)(F)F)cc1)N1CCN(c2ccc3nncn3n2)CC1 [Example 10484, 1-(4-{[1,2,4]triazolo[4,3-b]pyridazin-6-yl}piperazin-1-yl)-2-[4-(trifluoromethyl)phenyl] ethan-1-one] | 5450 nM | – |
| O=C(Cc1ccc(F)c(C(F)(F)F)c1)N1CCN(c2ccc3nncn3n2)CC1 [Example 10482, 2-[4-fluoro-3-(trifluoromethyl)phenyl] -1-(4-{[1,2,4]triazolo[4,3-b]pyridazin-6-yl}piperazin-1-yl)ethan-1-one] | 68.7 nM | 68.6 nM |
| O=C(Cc1ccc(COn2nnc3ccccc32)cc1)N1CCN(c2ccc3nncn3n2)CC1 [Example 2796, 2-{4-[(1H-1,2,3-benzotriazol-1-yloxy)methyl]phenyl}-1-(4-{[1,2,4]triazolo[4,3-b]pyridazin-6-yl}piperazin-1-yl)ethan-1-one] | > 25000 nM | – |
| C#Cc1ccc(CC(=O)N2CCN(c3ccc4nncn4n3)CC2)cc1 [Example 10046, 2-(4-ethynylphenyl)-1-(4-{[1,2,4]triazolo[4,3-b]pyridazin-6-yl}piperazin-1-yl)ethan-1-one] | 883 nM | 883 nM |
| O=C(Cc1ccc(CO)cc1)N1CCN(c2ccc3nncn3n2)CC1 [Example 2818] | > 25000 nM | – |
| CC(C)(C)OC(=O)NCCCc1ccc(CC(=O)N2CCN(c3ccc4nncn4n3)CC2)cc1 [Example 10242, Tert-butyl N-(3-{4-[2-oxo-2-(4-{[1,2,4]triazolo[4,3-b]pyridazin-6-yl}piperazin-1-yl)ethyl]phenyl}propyl)carbamate] | > 50000 nM | – |
| O=C(Cc1ccc(Cl)c(Cl)c1)N1CCN(c2ccc3nnc(C(F)(F)F)n3n2)CC1 [Example 2810, 2-(3,4-dichlorophenyl)-1-{4-[3-(trifluoromethyl)-[1,2,4]triazolo[4,3-b]pyridazin-6-yl]piperazin-1-yl}ethan-1-one] | 29000 nM | – |
| O=C(Cc1ccc2c(c1)OCO2)N1CCN(c2ccc3nncn3n2)CC1 [Example 10422, 2-(2H-1,3-benzodioxol-5-yl)-1-(4-{[1,2,4]triazolo[4,3-b]pyridazin-6-yl}piperazin-1-yl)ethan-1-one] | 10400 nM | – |
| O=C(C(=O)N1CCN(c2ccc3nncn3n2)CC1)c1ccc(Cl)c(Cl)c1 [Example 2765, 1-(3,4-dichlorophenyl)-2-(4-{ [1,2,4]triazolo[4,3-b]pyridazin-6-yl}piperazin-1-yl)ethane-1,2-dione] | 2250 nM | – |
| O=C(Cc1ccc(CN2CCOCC2)cc1)N1CCN(c2ccc3nncn3n2)CC1 [Example 2817, 2-{4-[(Morpholin-4-yl)methyl]phenyl}-1-(4-{[1,2,4]triazolo[4,3-b]pyridazin-6-yl}piperazin-1-yl)ethan-1-one] | > 25000 nM | – |
| O=C(Cc1ccc(S(F)(F)(F)(F)F)cc1)N1CCN(c2ccc3nncn3n2)CC1 [Example 10441, 2-[4-(pentafluoro-λ^6-sulfanyl)phenyl]-1-(4-{[1,2,4]triazolo[4,3-b]pyridazin-6-yl}piperazin-1-yl)ethan-1-one] | 11500 nM | – |
| O=C(N1CCN(c2ccc3nncn3n2)CC1)C(F)(F)c1ccc(Cl)c(Cl)c1 [Example 2799, 2-(3,4-dichlorophenyl)-2,2-difluoro-1-(4-{[1,2,4]triazolo[4,3-b]pyridazin-6-yl}piperazin-1-yl)ethan-1-one] | 2300 nM | – |

The next lines start with the values.

| EC50 [1] | EC50 [2] | SMILES |
| --- | --- | --- |
| > 25000 nM | – | O=C(Cc1ccccc1Cl)N1CCN(c2ccc3nncn3n2)CC1 [Example 2178, 2-(2-chlorophenyl)-1-(4-{[1,2,4]triazolo[4,3-b]pyridazin-6-yl}piperazin-1-yl)ethan-1-one] |
| > 25000 nM | – | O=C(Cc1cccc(Cl)c1Cl)N1CCN(c2ccc3nncn3n2)CC1 [Example 2798, 2-(2,3-dichlorophenyl)-1-(4-{[1,2,4]triazolo[4,3-b]pyridazin-6-yl}piperazin-1-yl)ethan-1-one] |
| 251 nM | 251 nM | O=C(Cc1ccc(Br)c(Cl)c1)N1CCN(c2ccc3nncn3n2)CC1 [Example 10238, 2-(4-bromo-3-chlorophenyl)-1-(4-{[1,2,4]triazolo[4,3-b]pyridazin-6-yl}piperazin-1-yl)ethan-1-one] |
| 121 nM | 121 nM | O=C(Cc1ccc(Cl)c(Br)c1)N1CCN(c2ccc3nncn3n2)CC1 [Example 10239, 2-(3-bromo-4-chlorophenyl)-1-(4-{[1,2,4]triazolo[4,3-b]pyridazin-6-yl}piperazin-1-yl)ethan-1-one] |
| > 25000 nM | – | O=C(Cc1c(Cl)cccc1Cl)N1CCN(c2ccc3nncn3n2)CC1 [Example 2720, 2-(2,6-dichlorophenyl)-1-(4-{[1,2,4]triazolo[4,3-b]pyridazin-6-yl}piperazin-1-yl)ethan-1-one] |
| 990 nM | 990 nM | O=C(Cc1cc(Cl)cc(Cl)c1)N1CCN(c2ccc3nncn3n2)CC1 [Example 2747, 2-(3,5-dichlorophenyl)-1-(4-{[1,2,4]triazolo[4,3-b]pyridazin-6-yl}piperazin-1-yl)ethan-1-one] |
| 272 nM | 272 nM | O=C(Cc1ccc(Cl)c(C(F)(F)F)c1)N1CCN(c2ccc3nncn3n2)CC1 [Example 10481, 2-[4-chloro-3-(trifluoromethyl)phenyl] -1-(4-{[1,2,4]triazolo[4,3-b]pyridazin-6-yl}piperazin-1-yl)ethan-1-one] |
| 880 nM | 880 nM | O=C(Cc1cc(F)cc(Cl)c1)N1CCN(c2ccc3nncn3n2)CC1 [Example 10483, 2-(3-chloro-5-fluorophenyl)-1-(4-{[1,2,4]triazolo[4,3-b]pyridazin-6-yl}piperazin-1-yl)ethan-1-one] |
| 760 nM | 760 nM | O=C(Cc1ccc(F)c(F)c1)N1CCN(c2ccc3nncn3n2)CC1 [Example 2800, 2-(3,4-difluorophenyl)-1-(4-{[1,2,4]triazolo[4,3-b]pyridazin-6-yl}piperazin-1-yl)ethan-1-one] |
| 33000 nM | – | O=C(Cc1cc(Cl)ccc1Cl)N1CCN(c2ccc3nncn3n2)CC1 [Example 2746, 2-(2,5-dichlorophenyl)-1-(4-{[1,2,4]triazolo[4,3-b]pyridazin-6-yl}piperazin-1-yl)ethan-1-one] |
| 22000 nM | – | O=C(Cc1ccccc1)N1CCN(c2ccc3nncn3n2)CC1 [Example 2819, 2-phenyl-1-(4-{[1,2,4]triazolo[4,3-b]pyridazin-6-yl}piperazin-1-yl)ethan-1-one] |
| 530 nM | 530 nM | O=C(Cc1ccc(Cl)c(F)c1)N1CCN(c2ccc3nncn3n2)CC1 [Example 2631, 2-(4-chloro-3-fluorophenyl)-1-(4-{[1,2,4]triazolo[4,3-b]pyridazin-6-yl}piperazin-1-yl)ethan-1-one] |
| 335 nM | 353 nM | Cc1cc(CC(=O)N2CCN(c3ccc4nncn4n3)CC2)ccc1F [Example 2759, 2-(4-fluoro-3-methylphenyl)-1-(4-{[1,2,4]triazolo[4,3-b]pyridazin-6-yl}piperazin-1-yl)ethan-1-one] |
| 1260 nM | – | Cc1ccc(CC(=O)N2CCN(c3ccc4nncn4n3)CC2)cc1Cl [Example 2756, 2-(3-chloro-4-methylphenyl)-1-(4-{[1,2,4]triazolo[4,3-b]pyridazin-6-yl}piperazin-1-yl)ethan-1-one] |
| 2290 nM | – | O=C(Cc1cccc(Br)c1)N1CCN(c2ccc3nncn3n2)CC1 [Example 2760, 2-(3-bromophenyl)-1-(4-{[1,2,4]triazolo[4,3-b]pyridazin-6-yl}piperazin-1-yl)ethan-1-one] |
| 232 nM | 232 nM | O=C(Cc1ccc(F)c(Br)c1)N1CCN(c2ccc3nncn3n2)CC1 [Example 10241, 2-(3-bromo-4-fluorophenyl)-1-(4-{[1,2,4]triazolo[4,3-b]pyridazin-6-yl}piperazin-1-yl)ethan-1-one] |
